Measured values taken from patent US20240091210A1, “USE OF 5-[[4-[2-[5-ACETYLPYRIDIN-2-YL]ETHOXY]BENZYL]-1,3-THIAZOLIDINE-2,4-DIONE AND ITS SALTS” (Minoryx Therapeutics S.L., priority 2018, published 2024).

Experiments:
[1] = Plasma pharmacokinetics in dogs after single oral 3 mg/kg M3 or MIN-102; assay type: in vivo, male Beagle dogs
Experimental: (§1) The plasma pharmacokinetics of 5-[[4-[2-[5-acetylpyridin-2-yl]ethoxy]phenyl]methyl]-1,3-thiazolidine-2,4-dione (M-III; M3) and 5-[[4-[2-[5-(1-hydroxyethyl)pyridin-2-yl]ethoxy]phenyl]methyl]-1,3-thiazolidine-2,4-dione (M-IV; M4) were determined in male Beagle dogs following a single oral (3 mg/kg) dose administration of either M3 or MIN-102.
Six animals were dosed orally with a suspension formulation of either M-III or MIN-102 in 0.1% Tween 80 and 99.9% CMC (aqueous carboxymethylcellulose 0.5% w/v solution in RO water) at 3 mg/kg. Blood samples (0.5 ml) were collected from the saphenous or cephalic or jugular veins of dogs at predose, 0.5, 1, 2, 4, 6 and 24 hr. Samples were collected into labeled micro-tubes, containing K2EDTA solution (20% K2EDTA solution) as an anticoagulant. Plasma was immediately harvested from the blood by centrifugation at 4000 rpm for 10 min and stored below −70° C. until bioanalysis.
(§2) Concentrations of M3 and M-IV in dog plasma samples were determined by fit-for-purpose LC-MS/MS method. Non-Compartmental-Analysis module in Phoenix WinNonlin® (Version 6.3) was used to assess the pharmacokinetic parameters. Peak plasma concentrations (Cmax) and time for the peak plasma concentrations (Tmax) were the 59 observed values. The areas under the concentration time curve (AUClast and AUCinf) were calculated by linear trapezoidal rule.

MDR1 = test: MDCKII monolayer assay; assay type: in vitro ADME; settings: dog, MDCK; after 120 minutes, MDCKII-MDR1 and MDCKII-Mock; loss due to conversion to M-IV
Experimental: The monolayer assays were performed using parental and MDR1 transfected MDCKII cell monolayers. MDCKII and MDCKII-MDR1 cells were cultured in Dulbecco's Modified Eagle's Medium with 4.5 g/L glucose (DMEM) supplemented with 10% (v/v) fetal bovine serum (FBS) at 37±1° C. in an atmosphere of 95:5 air:CO2 in cell culture flasks prior to seeding into 24-transwell inserts. Transfected and parental MDCKII cells were cultured on the inserts with 400 μL medium per well on the apical side and 25 mL in a single-well receiver tray for all 24 wells on the basolateral side, for 96 hours. Medium was changed 24 hours before the experiment. Trans-epithelial electric resistance (TEER) of each well was measured to confirm the confluency of the monolayers prior to the experiments. Permeability incubations were carried out in Hank's Buffered Salt Solution (HBSS) at 37±1° C. Apical to basolateral permeability of Lucifer yellow (LY) was assessed as a low permeability control and antipyrine was as a high permeability compound. […] LY samples were analyzed by measuring fluorescence with the following wavelengths: excitation—485 nm emission—520 nm, while the antipyrine samples were analyzed with LC-MS/MS.
As another follow-up, MDCKII-MDR1 substrate experiment was repeated at […] M-III. The amounts of M-III and M-IV were determined at the end of the incubation time. […]

[2] = Plasma pharmacokinetics in mice after single oral 4.5 mg/kg M-III or MIN-102; assay type: in vivo, male C57BL/6 mice
Experimental: The plasma pharmacokinetics of 5-[[4-[2-[5-acetylpyridin-2-yl]ethoxy]phenyl]methyl]-1,3-thiazolidine-2,4-dione (M-III) and 5-[[4-[2-[5-(1-hydroxyethyl)pyridin-2-yl]ethoxy]phenyl]methyl]-1,3-thiazolidine-2,4-dione (M-IV) were determined in male C57BL/6 mice following a single oral (4.5 mg/kg) dose of either M-III or MIN-102 (5-[[4-[2-[5-(1-hydroxyethyl)pyridin-2-yl]ethoxy]phenyl]methyl]-1,3-thiazolidine-2,4-dione hydrochloride).
Animals were administered orally with a suspension formulation of either M-III or MIN-102 in 0.1% Tween 80 and 99.9% NaCMC in water (0.5% w/v) at 4.5 mg/kg dose. The blood samples were collected from a set of three mice at each time point in labeled micro centrifuge tubes containing K2EDTA solution as anticoagulant at Pre-dose, 0.25, 0.5, 1, 2, 4, 8, 12 and 24 hr. Plasma samples were separated by centrifugation of whole blood and stored below −70±10° C. until bioanalysis. All samples were processed for analysis by protein precipitation using acetonitrile and analyzed with fit-for-purpose LC-MS/MS method (LLOQ=2.46 ng/mL for M-III and 2.49 ng/mL for M-IV). Pharmacokinetic parameters were calculated using the non-compartmental analysis tool of Phoenix WinNonlin® (Version 6.3).

[3] = Plasma pharmacokinetics in mice after single oral 50 mg/kg M-III; assay type: in vivo; settings: male C57BL/6 mice
Experimental: To the plasma pharmacokinetics of 5-[[4-[2-[5-acetylpyridin-2-yl]ethoxy]phenyl]methyl]-1,3-thiazolidine-2,4-dione (M-III) and 5-[[4-[2-[5-(1-hydroxyethyl)pyridin-2-yl]ethoxy]phenyl]methyl]-1,3-thiazolidine-2,4-dione (M-IV) were determined in male C57BL/6 mice following a single oral (50 mg/kg) dose administration of M-III.
Nine animals were administered orally with suspension formulation of M-III in 0.1% Tween 80 and 99.9% NaCMC in water (0.5% w/v) at 50 mg/kg dose. The dosing volume administered was 10 mL/kg. The blood samples were collected from set of three mice at each time point in labeled micro centrifuge tube containing K2EDTA solution as anticoagulant at Pre-dose, 0.25, 0.5, 1, 2, 4, 8, 12 and 24 hr. Plasma samples were separated by centrifugation of whole blood and stored below −70±10° C. until bioanalysis. All samples were processed for analysis by protein precipitation using acetonitrile and analyzed with fit-for-purpose LC-MS/MS method (LLOQ=2.46 ng/mL for M-III and 2.49 ng/mL for M-IV). Pharmacokinetic parameters were calculated using the non-compartmental analysis tool of Phoenix WinNonlin® (Version 6.3).

[4] = Plasma pharmacokinetics in rats after single oral 10 mg/kg M-III or MIN-102; assay type: in vivo, male Sprague Dawley rats
Experimental: as §1, with “male Sprague Dawley” for “male Beagle dogs”, “oral (10” for “oral (3”, “either M-III” for “either M3”
Six animals were dosed orally with a suspension formulation of either M-III or MIN-102 in 0.1% Tween 80 and 99.9% CMC (0.5% w/v solution in RO water) at 10 mg/kg.
The dosing volume administered was 10 mL/kg. Blood samples (approximately 60 μL) were collected from retro-orbital plexus of three rats at 0.08, 0.25, 0.5, 1, 2, 4, 8, 12 and 24 hr (IV) and at predose, 0.25, 0.5, 1, 2, 4, 8, 12 and 24 hr. Samples were collected into labeled micro-tubes, containing K2EDTA solution (20% K2EDTA solution) as an anticoagulant. Plasma was immediately harvested from the blood by centrifugation at 4000 rpm for 10 min at 4±2° C. and stored below −70° C. until bioanalysis.
as §2, with “M-III” for “M3”, “rat” for “dog”, “(Cax)” for “(Cmax)”, “the” for “the 59”

[5] = as described in WO 2015/150476 A1; cited from earlier work

- share of total exposure (AUC) ([1]; after single oral 3 mg/kg M3, male dogs): ~16%
- share of total exposure (AUC) ([1]; after single oral 3 mg/kg MIN-102, male dogs): about 8%
- recovery at 120 min (MDR1): 30 to 60%
- share of total exposure (AUC) ([2]; after single oral 4.5 mg/kg M-III, male mice): ~27%
- share of total exposure (AUC) ([2]; after single oral 4.5 mg/kg MIN-102, male mice): about 38%
- share of total exposure (AUC) [3]: about 25%
- share of total exposure (AUC) ([4]; after single oral 10 mg/kg M-III, male rats): ~53%
- share of total exposure (AUC) ([4]; after single oral 10 mg/kg MIN-102, male rats): about 42%
Structure (SMILES): CC(=O)c1ccc(CCOc2ccc(CC3SC(=O)NC3=O)cc2)nc1 (stereo not drawn) [M-III, 5-[[4-[2-[5-acetylpyridin-2-yl]ethoxy]phenyl]methyl]-1,3-thiazolidine-2,4-dione]
- blood-brain-barrier penetration [5]: does not penetrate the BBB
